In patent publication US4833146A, “Tertiary hydroxyalkylxanthines, medicaments containing them and their use” (priority 1985, dated 1989):
Read-outs that look alike come from different tables or passages of the source.

What was measured:
[1] = test system: regional cerebral circulation; experiment: Action on regional cerebral circulation of anesthetized cats (heat conducting technique); format: in vivo, cats of both sexes; conditions: Felis catus, iv, 3 mg/kg i.v., read-out: Average increase in cerebral circulation as Δλ in %
Method: The percentage increase in the heat transport number λ after administration of the product is thus a measure of the improvement in circulation.
The compounds were administered intravenously in aqueous solution. The dose was 3 mg of test substance per kg of body weight. 3 to 5 individual experiments were carried out for each test product, and the average percentage increase in cerebral circulation was determined from the measurement data obtained.

in vivo = conditions: mouse, in vivo, single dose, 7 days, read-out: Toxicity LD50 (mouse)
Method: (§1) The LD50 ranges were determined by the standard method via the mortality which arose within 7 days in NMRI mice following a single intravenous (i.v.) or intraperitoneal (i.p.) dose (NMRI=Naval Medical Research Institute).

ischemic skeletal muscle [2] = experiment: Action on disturbed peripheral arterial circulation: pO2 in ischemic skeletal muscle, occlusion model on dogs; format: in vivo, male beagle dogs; design: key: W = % frequency of positive experiments × mean % pO2 increase; conditions: dog occlusion model
Method: The experimental animals used were male beagle dogs under sodium pentobarbital anesthesia (35 mg/kg intraperitoneally), on whose right hind extremity the femoral artery and a certain area of the lower leg muscle was exposed and on whose left hind extremity the femoral vein was exposed and a cannula inserted for infusion of the product and the femoral artery was exposed and a cannula inserted for blood pressure measurements. The animals were relaxed by administration of alcuronium chloride (0.1 mg/kg intravenously and then 0.05 mg/kg intraperitoneally every 30 minutes) and artificially ventilated in order on the one hand to avoid spontaneous contractions of the muscle with an adverse effect on the pO2 measurements and on the other hand to guarantee a uniform supply of respiratory oxygen. Another catheter inserted into the femoral vein of the right hind extremity was used to monitor the lactate concentration in the venous outflow. […]
In each experiment, the maximum percentage rise in the pO2 following administration of the substance during vascular occlusion was used as the measurement parameter for the action of the product (n=2-11). A dimensionless activity index W was calculated from three measurement values for each compound by obtaining the product of the percentage frequency of positive experiments and the average percentage increase in pO2 resulting from the positive individual values, this index both taking into account interindividual differences in the topology of the vascularization of the muscle and also recording responders and nonresponders to the test compounds and accordingly permitting a more reliable activity comparison amongst the individual products.

NMRI mice = experiment: in vivo; conditions: single dose, 7 days, Table 3
Method: as §1

ischemic skeletal muscle [3] = experiment: Chronic experiment: contractility of the ischemic skeletal muscle in rats with a ligated right femoral artery; format: in vivo; conditions: 25 mg/kg daily oral, 20 days
Method: The superiority of the xanthines of the formula I was also to be seen from another chronic experiment in which the influence on the contractility of the ischemic skeletal muscle in rats with a ligated right femoral artery was investigated. The animals received the particular test product in a daily oral dose of 25 mg/kg by a stomach tube for 20 days. Thereafter, the fatigability of the ischemic muscle on electrical stimulation with about 80 contractions per minute was determined via the decrease in contractile force after stimulation for 1, 15 and 45 minutes in comparison with untreated control animals. […] This improvement was accompanied by an increase in the mitochondrial respiratory control rate (RCR). […] The compounds according to the invention are accordingly also suitable for the treatment of muscular energy metabolism disorders of various causes, particularly mitochondrial myopathy.

[4] = test system: ischemic skeletal muscle (tibialis anterior and extensor digitorum longus); experiment: Chronic experiment on rats with unilateral occlusion of the iliac artery: metabolism in ischemic skeletal muscle (histochemical staining); format: in vivo
[5] = test system: isolated perfused rabbit ear; experiment: Inhibiting effect on vascular contraction induced with norfenefrine on the isolated perfused rabbit ear
From the text: It is today generally recognized that exclusively vasodilating drugs or agents with a very potent vasodilating action component are unsuitable for the treatment of disturbances in the microcirculation because, on the one hand, the physiological vasodilatory reserve as a rule is already completely exhausted, and on the other hand there is the risk of a steal phenomenon, which means a harmful redistribution of the nutritive blood flow in the microcirculation at the expense of the already undersupplied diseased tissue. The inhibiting effect on vascular contraction induced with norfenefrine on the isolated perfused rabbit ear was therefore investigated.

[6] = animals and humans, cited from earlier work; for "liver first-pass" effect: especially on oral administration; for biotransformation: enzymatic oxidation of the oxo- or hydroxyhexyl side chain

## CCn1c(=O)n(CCCCC(C)(C)O)c(=O)c2c1ncn2CCCOC [Example 43]
[1]
  change in vivo at 3 mg/kg: 19.8%
In vivo; iv, Table 3
  LD50 at 168 h: > 200 mg/kg

## CC(O)Cn1cnc2c1c(=O)n(CCCCC(C)(C)O)c(=O)n2C (stereo not shown) [Example 8, 1-(5-Hydroxy-5-methylhexyl)-7-(2-hydroxypropyl)-3-methylxanthine]
Ischemic skeletal muscle [2]; i.v. 0.6 mg/kg/min
  Activity index W: 1400

## Cn1c(=O)n(CCCCC(C)(C)O)c(=O)c2[nH]cnc21 [Example 6, 1-(5-Hydroxy-5-methylhexyl)-3-methylxanthine]
Ischemic skeletal muscle [2]; i.d. 25 mg/kg
  Activity index W: 700

## CCCn1cnc2c1c(=O)n(CCCCC(C)(C)O)c(=O)n2CC [Example 18]
[1]
  change in vivo at 3 mg/kg: 9.4%
Ischemic skeletal muscle [2]; i.v. 0.6 mg/kg/min
  Activity index W: 1578
In vivo; iv, Table 2
  LD50 at 168 h: 100 to 200 mg/kg
NMRI mice; i.v.
  Toxicity LD50 (mouse): 100 to 200 mg/kg

## Cn1cnc2c1c(=O)n(CCCCC(C)(C)O)c(=O)n2C [Example 14, 1-(5-Hydroxy-5-methylhexyl)-3,7-dimethylxanthine]
Ischemic skeletal muscle [2]; i.v. 0.6 mg/kg/min
  Activity index W: 960

## CCCn1c(=O)c2c(ncn2CCCCC(C)(C)O)n(C)c1=O [Example 3, 7-(5-Hydroxy-5-methylhexyl)-3-methyl-1-propylxanthine]
[1]
  change in vivo at 3 mg/kg: 15.5%
Ischemic skeletal muscle [2]; i.d. 25 mg/kg
  Activity index W: 1250
Ischemic skeletal muscle [2]; i.v. 0.6 mg/kg/min
  Activity index W: 1650
In vivo; iv, Table 2
  LD50 at 168 h: 100 to 200 mg/kg
NMRI mice; i.v.
  Toxicity LD50 (mouse): 100 to 200 mg/kg

## CCn1c(=O)n(CCCCC(C)(C)O)c(=O)c2c1ncn2CCOC [Example 37]
Ischemic skeletal muscle [2]; i.d. 25 mg/kg
  Activity index W: 950
Ischemic skeletal muscle [2]; i.v. 0.6 mg/kg/min
  Activity index W: 1400

## CCCn1cnc2c1c(=O)n(CCCC(C)(C)O)c(=O)n2C [Example 12, 1-(4-Hydroxy-4-methylpentyl)-3-methyl-7-propylxanthine]
Ischemic skeletal muscle [2]; i.d. 25 mg/kg
  Activity index W: 2337
Ischemic skeletal muscle [2]; i.v. 0.6 mg/kg/min
  Activity index W: 866

## CC(=O)CCCCn1c(=O)c2c(ncn2C)n(C)c1=O [Pentoxifylline, 3,7-dimethyl-1-(5-oxohexyl)-xanthine, reference compound]
Ischemic skeletal muscle [3]
  action in these experiments (ischemic muscle contractility): no action
[1]
  change in vivo at 3 mg/kg: 8.6%
[4]; chronic experiment, iliac artery occlusion
  influence on muscular metabolism in the ischemic skeletal muscle: no direct influence
[5]; concentration range from 10 to 100 μg/ml
  dilating effect on the norfenefrine-contracted vessels: dose-dependent dilating effect
[6]
  "liver first-pass" effect: pronounced
  biotransformation: rapid and complete

## COCn1cnc2c1c(=O)n(CCC(C)(C)O)c(=O)n2C [Example 32]
Ischemic skeletal muscle [2]; i.d. 25 mg/kg
  Activity index W: 566
Ischemic skeletal muscle [2]; i.v. 0.6 mg/kg/min
  Activity index W: 2650

## CCn1c(=O)n(CCCCC(C)(C)O)c(=O)c2c1ncn2C [Example 17]
[1]
  change in vivo at 3 mg/kg: 9.4%
Ischemic skeletal muscle [2]; i.v. 0.6 mg/kg/min
  Activity index W: 1525
In vivo; iv, Table 3
  LD50 at 168 h: > 200 mg/kg

## Cn1c(=O)c2c(ncn2CCCCC(C)(C)O)n(C)c1=O [Example 4, 7-(5-Hydroxy-5-methylhexyl)-1,3-dimethylxanthine]
Ischemic skeletal muscle [2]; i.v. 0.6 mg/kg/min
  Activity index W: 1300
In vivo; iv, Table 2
  LD50 at 168 h: 100 to 200 mg/kg

## Cn1c(=O)n(CCCCC(C)(C)O)c(=O)c2c1ncn2CCCO [Example 50]
Ischemic skeletal muscle [2]; i.d. 25 mg/kg
  Activity index W: 733
Ischemic skeletal muscle [2]; i.v. 0.6 mg/kg/min
  Activity index W: 2631

## CCOCn1cnc2c1c(=O)n(CCCCC(C)(C)O)c(=O)n2C [Example 5, 7-Ethoxymethyl-1-(5-hydroxy-5-methylhexyl)-3-methylxanthine]
Ischemic skeletal muscle [3]
  mitochondrial respiratory control rate (RCR): increase
Ischemic skeletal muscle [3]; compared with healthy muscle of untreated animals
  contractility values reached in the ischemic muscle: normal contractility values like those in the left healthy (non-ischemic) muscle of untreated animals being reached
Ischemic skeletal muscle [3]; electrical stimulation for 1, 15 and 45 minutes
  muscular performance in the ischemic extremity: significant improvement
[4]; 3 mg/kg intraperitoneally three times daily, 5 weeks
  proportion of oxidative fibers in the two muscles of the ischemic extremity: increased significantly
[5]; up to a concentration of 100 μg/ml
  inhibition of the norfenefrine action: no inhibition
Ischemic skeletal muscle [2]; i.d. 25 mg/kg
  Activity index W: 2909
Ischemic skeletal muscle [2]; i.v. 0.3 mg/kg/min
  Activity index W: 2080
In vivo; ip, Table 2
  LD50 at 168 h: 300 to 600 mg/kg
In vivo; iv, Table 2
  LD50 at 168 h: 150 to 300 mg/kg

## COCn1cnc2c1c(=O)n(CCCCCC(C)(C)O)c(=O)n2C [Example 27]
[1]
  change in vivo at 3 mg/kg: 10.3%
In vivo; iv, Table 3
  LD50 at 168 h: > 200 mg/kg

## CCCn1cnc2c1c(=O)n(CCCC(C)(C)O)c(=O)n2CC [Example 22]
[1]
  change in vivo at 3 mg/kg: 12%
In vivo; iv, Table 3
  LD50 at 168 h: > 200 mg/kg

## COCn1cnc2c1c(=O)n(CCCCC(C)(C)O)c(=O)n2C [Example 28]
Ischemic skeletal muscle [2]; i.d. 25 mg/kg
  Activity index W: 2100

## CCOCCn1cnc2c1c(=O)n(CCCCC(C)(C)O)c(=O)n2C [Example 39]
Ischemic skeletal muscle [2]; i.d. 25 mg/kg
  Activity index W: 1996
Ischemic skeletal muscle [2]; i.v. 0.6 mg/kg/min
  Activity index W: 1567

## CCOCCOCCn1cnc2c1c(=O)n(CCCCC(C)(C)O)c(=O)n2CC [Example 48]
[1]
  change in vivo at 3 mg/kg: 14.6%
In vivo; iv, Table 3
  LD50 at 168 h: > 200 mg/kg

## CCCn1cnc2c1c(=O)n(CCCCC(C)(C)O)c(=O)n2C [Example 9, 1-(5-Hydroxy-5-methylhexyl)-3-methyl-7-propylxanthine]
[1]
  change in vivo at 3 mg/kg: 9.4%
In vivo; iv, Table 3
  LD50 at 168 h: 100 to 200 mg/kg

## COCCOCn1cnc2c1c(=O)n(CCCCC(C)(C)O)c(=O)n2C [Example 44]
Ischemic skeletal muscle [2]; i.v. 0.6 mg/kg/min
  Activity index W: 1199

## CCC(C)(O)CCCCn1c(=O)c2c(ncn2C)n(C)c1=O (stereo not shown) [Example 10, 1-(5-Hydroxy-5-methylheptyl)-3,7-dimethylxantine]
Ischemic skeletal muscle [2]; i.d. 25 mg/kg
  Activity index W: 1965

## CCCn1cnc2c1c(=O)n(CCCCCC(C)(C)O)c(=O)n2C [Example 16]
[1]
  change in vivo at 3 mg/kg: 25.8%
Ischemic skeletal muscle [2]; i.v. 0.6 mg/kg/min
  Activity index W: 999
In vivo; ip, Table 2
  LD50 at 168 h: 150 to 300 mg/kg
NMRI mice; i.p.
  Toxicity LD50 (mouse): 150 to 300 mg/kg

## CC(O)CCCCn1c(=O)c2c(ncn2C)n(C)c1=O (stereo not shown) [1-(5-hydroxyhexyl)-3,7-dimethylxanthine]
[6]
  "liver first-pass" effect: pronounced
  biotransformation: rapid and complete
